Laboratory results published in patent publication US6849757B2, “Antiangiogenic drug to treat cancer, arthritis and retinopathy” (Abbott Laboratories, priority 1998, dated 2005).

What follows are compounds tested on Human Microvascular Endothelial Cells (HMVEC) (assay: Endothelial cell migration assay (modified Boyden chamber, bFGF-stimulated)). Conditions: HMVEC migration toward bFGF, 4 hours at 37° C., percent inhibition of migration compared to a positive control.
Format: cell-based
Description: Endothelial Cell Migration Assay
The endothelial cell migration assay was performed essentially as described by Polverini, P. J. et al., Methods Enzymol, 198: 440-450 (1991). Briefly, Human Microvascular Endothelial Cells (HMVEC) were starved overnight in DMEM containing 0.1% bovine serum albumin (BSA). Cells were then harvested with trypsin and resuspended in DMEM with 0.1% BSA at a concentration of 1.5×10^6 cells/mL. Cells were added to the bottom of a 48-well modified Boyden chamber (Nucleopore Corporation, Cabin John, Md.). The chamber was assembled and inverted, and cells were allowed to attach for 2 hours at 37° C. to polycarbonate chemotaxis membranes (5 μm pore size) that had been soaked in 0.1% gelatin overnight and dried. The chamber was then reinverted and basic fibroblast growth factor (bFGF) and test substances were added to the wells of the upper chamber (to a total volume of 50 μL); the apparatus was then incubated for 4 hours at 37° C. Membranes were recovered, fixed and stained (DiffQuick, Fisher Scientific, Pittsburgh, Pa.) and the number of cells that had migrated to the upper chamber per 10 high power fields were counted. Background migration to DMEM+0.1% BSA was subtracted and the data reported as the number of cells migrated per 10 high power fields (400×) or when results from multiple experiments were combined, as the percent inhibition of migration compared to a positive control.
In the case of `COC(=O)c1ccc(NC(=O)[C@H](CCCCNC(=O)OCc2ccccc2)NC(C)=O)cc1-c1cccc(OCc2ccccc2)c1` [Example 12], the “% inhibition at 200 nM test compound” value is reported as 29%. `CC(=O)N[C@@H](CCCCN)C(=O)Nc1ccc(C(=O)O)c(-c2cccc(O)c2)c1` [Example 15, (S)-4-[[2-(acetylamino)-6-amino-1-oxohexyl)amino]-2-(3-hydroxphenyl)benzoic acid] was tested, and the “% inhibition at 200 nM test compound” value was 64%. For `CC(=O)NC(CCCCN)C(=O)Nc1ccc(C(=O)N[C@@H](CC(N)=O)C(=O)O)c(-c2ccccc2)c1` (stereo partly shown) [Example 17], the “% inhibition at 200 nM test compound” value was greater than 95%. With `CC(C)(C)OC(=O)N[C@@H](CCCCN)C(=O)Nc1ccc(C(=O)O)c(-c2cccc(O)c2)c1` [Example 31, 5-(((2S)-6-amino-1-(tert-butoxycarbonyl)aminohexanoyl)amino)-3′-hydroxy(1,1′-biphenyl)-2-carboxylic Acid] the “% inhibition at 200 nM test compound” value was greater than 95%. For “(S)-N-[4-[[2-(acetylamino)-6-amino-1-oxohexyl]amino]benzoyl]-L-α-asparagine [Example 18]”, the “% inhibition at 200 nM test compound” value was 90%.

Same assay, conditions: Homo sapiens; 200 nM test compound; HMVEC migration toward bFGF, 4 hours at 37° C.; percent inhibition of migration compared to a positive control
Compound `COC(=O)c1ccc(NC(=O)[C@@H](CCCCN)NC(=O)OC(C)(C)C)cc1-c1ccccc1O` [Example 10, (R)-methyl 4-[[6-amino-2-[[(1,1-dimethylethoxy)carbonyl]amino]-1-oxohexyl]amino]-2-(2-hydroxyphenyl)benzoate] has an inhibition at 0.2 µM of 80%. Work on `NC(CCCCNC(=O)OCc1ccccc1)C(=O)Nc1ccc(CC(=O)N[C@@H](CC(=O)O)C(=O)O)cc1` (stereo partly drawn) [Example 20, (S)-N-[[4-[[2-amino-6-[[(phenylmethoxy)carbonyl]amino]-1-oxohexyl]amino]phenyl]acetyl]-L-aspartic Acid] yielded an inhibition at 0.2 µM of 34%.
